As usually defined, the IC50 is the point on the concentration scale where inhibition reaches its midpoint.

For data set [1], the system named is SKVBL (MDR variant of SKOV3). The experiment in a line: Cytotoxicity by counting cells after 72 h, MDR variant cells. Format: cell-based, human. The settings on record: for IC50: Homo sapiens, SK-OV-3, Ovarian Carcinoma SKOV3, Resistant (SKVBL), 72 h, mean of at least three independent experiments. Here is the method:
(§1) Human non-small cell lung carcinoma cells, A549, were maintained in RPMI 1640 containing 10% fetal bovine serum and 1% penicillin-streptomycin (Gibco Laboratories, Grand Island N.Y.) at 37° C. in 7% CO2. The Taxol-resistant cell line A549-T12 was selected for resistance to Taxol and maintained in a final concentration of 12 nM drug (21). Human ovarian carcinoma cells SKOV3 and the MDR variant SKVBL (obtained from Dr. V. Ling) were maintained in α-mem plus ribonucleotides, deoxynucleotides, 15% fetal bovine serum and 1% penicillin-streptomycin (Gibco Laboratories) at 37° C. in 5% CO2. SKVBL cells were maintained in […] vinblastine (Sigma Chemical Co.).
(§2) Taxol-resistant and sensitive cell lines were seeded into 12-well plates at a density of 5×10^4 cells per well and allowed a period of 12 h for attachment prior to treatment. Cells were exposed to 10-fold serial dilutions of each compound (10^-10 to 10^-6 M) for 72 h. Cells were then trypsinized and counted (Coulter counter model ZF0031, Coulter Corp., Miami, Fla.). The IC50 was determined by plotting cell number against log of the drug concentration and this was used to determine the concentration of compound resulting in 50% growth inhibition compared to untreated cells. Each cell line was assayed in a minimum of 3 independent experiments with each compound and the results expressed as the mean IC50.
(§3) The cytotoxic efficacy of eleutherobin and its derivatives (FIG. 6) was evaluated in two drug sensitive human cancer cell lines and their Taxol-resistant counterparts. The results are summarized in Table I in order of decreasing potency. […] The Taxol-resistant cell line SKVBL overexpresses high levels of P-glycoprotein (22). […] The only difference between the two agents is the enantiomeric relationship in the carbohydrate (2'-acetylarabinose) sector (FIG. 6). […] This cell line expressed high levels of MDR1 resulting in Taxol-resistance equal or greater than 1666 -fold compared to the Taxol-sensitive SKOV3 cell line.
(§4) ^a Cytotoxicity determined by counting cells after 72 h drug exposure.

A short description of data set [2]: Overall biological activity, all parameters tested. Here is the method: as §2
(§5) The ability of each compound to polymerize tubulin was evaluated by recording the change in turbidity of microtubule protein at 350 nm for 80 min in a spectrophotometer (UVIKON, Research Instruments Int., SD, Calif.). One mg of purified microtubule protein was diluted in assembly buffer containing 0.1 M MES, 1 mM EGTA, 0.5 mM MgCl2 and 3 M glycerol, pH 6.6. All compounds were evaluated at a concentration of 10 μM at 37° C. GTP was used at a final concentration of 1 mM. Microtubule stability was assessed by the addition of 10 mM Ca^++. changes from t=0-10 min were used to calculate initial slopes from the linear portion of each curve. These values were used to calculate the activity of each compound (relative to the activity of Taxol which was assigned a value of 100%).
(§6) NIH 3T3 cells were grown to subconfluency on glass converslips in 35 mm plastic petri dishes. Cells were exposed to 2 μM of Taxol and each of the experimental compounds for 5.5 h at 37° C., rinsed twice in PBS and extracted with 0.5% Triton-X-100 in microtubule stabilizing buffer (PEM) (100 mM PIPES, 2 mM EGTA and 2 mM MgCl2, pH 6.8) for 4 min. Following a wash in PEM, the cells were fixed for 40 min at room temperature in 3% formaldehyde in PEM followed by incubation in 0.1 M glycine in PBS for 10 min and washing (four times) in PEM containing 5 μM EGTA. Following blocking in 20% normal goat serum (NGS) for 30 min at room temperature, cells were incubated for 1 h at 37° C. with a 1:100 dilution of β-tubulin mAb diluted in 10% NGS, washed twice in 1% BSA, once in PBS and three times in 1% BSA. Cells were then incubated in a 1:200 dilution of the secondary fluorophore antibody, IndocarbocyanineCY3 (Jackson Immunoresearch Laboratories Inc., Pa.) in 20% NGS for 20 min at room temperature. Finally cells were washed three times in 1% BSA and the dried slides mounted in 30% glycerol in PBS containing […]-phenylene diamine (1 mg/ml). Fixed slides were examined using a Zeiss Axioskop microscope.

For another data set, the system named is P-glycoprotein. The experiment in a line: P-glycoprotein substrate behaviour inferred from resistance of SKVBL cells. Format: cell-based, human. Here is the method: as §1, §2, §3
The next data set relates to microtubule protein. The data set can be described thus: Stability of microtubules against Ca++-induced depolymerization. Format: biochemical, calf. The following applies: 10 mM CaCl2. As to the method:
(§7) Eleutherobin and its derivatives were synthesized as described (18,19). Taxol was obtained from the Drug Development Branch, National Cancer Institute (Bethesda, Md.). All compounds were dissolved in dimethyl sulfoxide (Sigma Chemical Co., St. Louis, Mo.) at stock concentrations of 5 mM and stored at -20° C. All control samples contained an equal volume of DMSO. GTP was obtained from Sigma Chemical Co. And dissolved in sterile distilled water at a concentration of 10 mM and stored at -20° C. Microtubule protein was purified from calf brains by two cycles of temperature-dependent assembly and disassembly (20) and stored in liquid nitrogen prior to use. The anti-mouse β-tubulin monoclonal antibody T-4026 was obtained from Sigma Chemical Co.
as §5
The ability of each compound to polymerize and/or stabilize microtubules was assessed (FIG. 7). To investigate whether eleutherobin and its derivatives shared the microtubule stabilizing properties of Taxol, 10 mM CaCl2 was added to each sample after maximum microtubule polymerization occurred, and the effects on turbidity recorded spectrophotometrically. A positive control was included in which 1 mM GTP was used to confirm the ability of GTP-stabilized microtubules to undergo Ca^++ induced depolymerization.
The ability of this compound to stabilize microtubules formed in the presence of GTP was examined. After a period of 15 min, 10 mM Ca^++ was added and the change in turbidity recorded.

The subject of data set [3] is cellular microtubules, NIH 3T3 cells. The experiment in a line: Microtubule bundle formation by immunofluorescence. Type of data set: cell-based. The following applies: 2 μM, 5.5 h; for microtubule bundle formation (in words): 37 °C. As to the method: FIG. 9 immunofluorescence images NIH3T3 cells labeled with β-tubulin antibody following exposure to different drugs. A)DMSO; B)2 μM Taxol; C)2 μM eleutherobin; D)2 μM neo-eleutherobin; E)2 μM SKBII.294; F)2 μM SKBIII.13.
Illustrates the effects of eleutherobin and its derivatives on the morphology of cellular microtubules following exposure of cells to 2 μM of each compound for 5.5 h at 37° C. […] The number of micotic asters correlated with the extent of microtubule bundling in interphase cells.
as §6

Data set [4] relates to tubulin / microtubule protein. The experiment in a line: Tubulin polymerization by turbidity at 350 nm in the absence of GTP. The following applies: 10 μM; for tubulin polymerization (in words): 37 °C, absence of GTP. Type of data set: biochemical, calf. As to the method:
as §7
as §5, with “GTP was used at a final concentration of 1 mM.” left out
The polymerization activity of these compounds was also assessed by determining the slope of the linear portion of each curve at A350 nm (t=0-10 min), and expressing this relative to Taxol (which was assigned a value of 100% (FIG. 8). The order of activity of eleutherobin and derivatives using this method, corroborates the results obtained from cytotoxicity studies.

Data set [5] has as its system A549-T12 (Taxol-resistant A549). The data set can be described thus: Cytotoxicity by counting cells after 72 h, Taxol-resistant cells. Type of data set: cell-based, human. The settings on record: for fold resistance relative to the parental cell line: A549-T12 vs A549, 4320 min; for IC50: Homo sapiens, Lung Carcinoma A549, Resistant (A549-T12), 72 h, mean of at least three independent experiments. Here is the method:
as §1, §2, §3, §4

The subject of data set [6] is Human non-small cell lung carcinoma cells, A549. The data set can be described thus: Cytotoxicity by counting cells after 72 h, Taxol-sensitive cells. Type of data set: cell-based. The settings on record: for IC50: Homo sapiens. As to the method:
Taxol-resistant and sensitive cell lines were seeded into 12-well plates at a density of 5×10^4 cells per well and allowed a period of 12 h for attachment prior to treatment. […] Cells were then trypsinized and counted (Coulter counter model ZF0031, Coulter Corp., Miami, Fla.).

Data set [7] has as its system Human ovarian carcinoma cells SKOV3. The description is as above. Type of data set: cell-based. Here is the method: as §1, §2, §4
Where [8] appears, read: sensitive cell lines (A549, SKOV3).

Values joined by “and” are separate entries in the source; they are usually repeats but may differ in a detail not shown here. Equal entries are not always repeated. “Also recorded” adds a separate entry of the source. Where two headings read alike, the source gives them in different places.

Consider `CO[C@]12C=C[C@](C)(O1)[C@@H](OC(=O)/C=C/c1cn(C)cn1)C[C@H]1C(C)=CC[C@H](C(C)C)[C@H]1C=C2CO[C@H]1OC[C@H](O)[C@H](O)[C@H]1OC(C)=O` [Neo-Eleutherobin], for which the IC50 is above 1000 nM in data set [1]; 146 nM in data set [5]; 125 nM in data set [6] (A549, 72 h); 134 nM in data set [7] (SK-OV-3, 72 h). The “cross-resistance in SKVBL (in words)” value in [1] (MDR1 expressing cells, high P-glycoprotein) is on record as “exhibited cross-resistance in an MDR1 expressing cell line; also recorded: demonstrated cross-resistance”. The “biological activity (in words)” value in data set [2] is given as “less active than eleutherobin in all of the parameters examined”. Moreover, the “P-glycoprotein substrate (in words)” value with P-glycoprotein is given as “excellent substrates for P-glycoprotein”. For the same molecule, in the data set with microtubule protein, the “stabilization against Ca++-induced depolymerization (in words)” value (“stabilization” for short) was “the microtubules formed also resisted Ca^++ -induced depolymerization”. Besides, the “microtubule bundle formation (in words)” value in [3] was “the extent of bundling was reduced”. The “multiple asters in mitotic cells” value in [3] (data not shown) is “also seen in eleutherobin and neo-eleutherobin-treated cells”. Also, the “microtubule polymerization activity relative to eleutherobin” value in data set [4] (relative to eleutherobin) was 69%. Moreover, in data set [5], the “fold resistance relative to the parental cell line” value was 1.2 fold. The “cross-resistance in A549-T12 (in words)” value in [5] (Taxol-resistant, not expressing P-glycoprotein) is listed as “neither eleutherobin nor neo-eleutherobin displayed cross-resistance; also recorded: neither of these compounds showed cross-resistance”. The “fold less active / less cytotoxic than eleutherobin” value in data set [6] (setting [8]) is 20 fold and 14-20 fold.

Regarding `CO[C@]12C=C[C@](C)(O1)[C@@H](O)C[C@H]1C(C)=CC[C@H](C(C)C)[C@H]1C=C2CO[C@@H]1OC[C@@H](O)[C@@H](O)[C@@H]1O` [SKBIII.13], the entries for the “biological activity (in words)” value in [2] and in data set [2] (listed as SKBII.13) were “basically inactive by all parameters tested” and “biologically inactive”, respectively. Besides, the “stabilization” value in the data set with microtubule protein is given as “unable to stabilize GTP-polymerized microtubules against Ca^++ induced depolymerization”. Besides, the “microtubule bundle formation (in words)” value in data set [3] was “a fine microtubule network without bundle formation”. Also, the “tubulin polymerization (in words)” value is “inactive in tubulin polymerization assays” in [4] and “forfeited the ability to polymerize microtubules” in data set [4] (listed as SKBII.13). Further, the IC50 in data set [6] (Lung Carcinoma A549, Sensitive, 72 h, mean of at least three independent experiments, read-out: IC50) is 4150 nM; in [7] (SK-OV-3, Ovarian Carcinoma SKOV3, Sensitive, 72 h, mean of at least three independent experiments, read-out: IC50), above 5000 nM. In addition, the “cytotoxicity (in words)” value in data set [6] (setting [8]) is on record as “its cytotoxicity is greatly reduced”.

With `CC(=O)O[C@H]1C(=O)[C@@]2(C)[C@H]([C@H](OC(=O)c3ccccc3)[C@]3(O)C[C@H](OC(=O)[C@H](O)[C@@H](NC(=O)c4ccccc4)c4ccccc4)C(C)=C1C3(C)C)[C@]1(OC(C)=O)CO[C@@H]1C[C@@H]2O` [Taxol, reference compound], the IC50 in [1] is above 5000 nM; in data set [5] it was 14.2 nM; in data set [6] (A549, 72 h), 2 nM; in [7] (SK-OV-3, 72 h) it was 3 nM. Also, the “fold resistance relative to the parental cell line” value is at least 1666 fold in data set [1] (SKVBL vs SKOV3); 7 fold and 7.1 fold in [5]. In the data set on P-glycoprotein, the “P-glycoprotein substrate (in words)” value is on record as “excellent substrates for P-glycoprotein”. Moreover, in the data set with microtubule protein, the “stabilization” value is “stabilized microtubules against Ca^++ -induced depolymerization”. Besides, in data set [3], the “microtubule bundle formation (in words)” value is on record as “identical to that seen in Taxol-treated cells”.
